Reference: patent publication US20100029619A1, “FUSED HETEROCYCLIC COMPOUND” (TAKEDA PHARMACEUTICAL COMPANY LIMTED, priority 2006, published 2010)

SMILES	melting point [°C]
CC(C)(C)c1ccc(C(=O)Nc2cn3cc(C(F)(F)F)ccc3n2)cc1 [Example 452, 4-tert-butyl-N-[6-(trifluoromethyl)imidazo[1,2-a]pyridin-2-yl]benzamide]	234 to 235
CC(C)(C(=O)NCC(O)CO)c1ccc(C(=O)Nc2cn3cc(Cl)ccc3n2)cc1 (stereo not drawn) [Example 454, N-(6-chloroimidazo[1,2-a]pyridin-2-yl)-4-{2-[(2,3-dihydroxypropyl)amino]-1,1-dimethyl-2-oxoethyl}benzamide]	198 to 199
CC(C)(C#N)c1ccc(C(=O)Nc2cn3cc(C(F)(F)F)ccc3n2)cc1 [Example 455, 4-(1-cyano-1-methylethyl)-N-[6-(trifluoromethyl)imidazo[1,2-a]pyridin-2-yl]benzamide]	230 to 231
CC(C)(CNC(=O)c1c[nH]cn1)c1ccc(C(=O)Nc2cn3cc(C(F)(F)F)ccc3n2)cc1 [Example 456, N-[2-methyl-2-(4-{[6-(trifluoromethyl)imidazo[1,2-a]pyridin-2-yl]carbamoyl}phenyl)propyl]-1H-imidazole-4(5)-carboxamide]	174 to 176
CC(C)(CNC(=O)c1ncc[nH]1)c1ccc(C(=O)Nc2cn3cc(C(F)(F)F)ccc3n2)cc1 [Example 457, N-[2-methyl-2-(4-{[6-(trifluoromethyl)imidazo[1,2-a]pyridin-2-yl]carbamoyl}phenyl)propyl]-1H-imidazole-2-carboxamide]	292 to 293
CC(C)(CNC(=O)Cc1cnc[nH]1)c1ccc(C(=O)Nc2cn3cc(C(F)(F)F)ccc3n2)cc1 [Example 458, 4-{2-[(1H-imidazol-5-ylacetyl)amino]-1,1-dimethylethyl}-N-[6-(trifluoromethyl)imidazo[1,2-a]pyridin-2-yl]benzamide]	261 to 263
CC(C)(CCO)c1ccc(C(=O)Nc2cn3cc(C(F)(F)F)ccc3n2)cc1 [Example 459, 4-(3-hydroxy-1,1-dimethylpropyl)-N-[6-(trifluoromethyl)imidazo[1,2-a]pyridin-2-yl]benzamide]	152 to 153
CC(C)(CO)c1ccc(C(=O)Nc2cn3cc(C(F)(F)F)ccc3n2)cc1 [Example 461, 4-(2-hydroxy-1,1-dimethylethyl)-N-[6-(trifluoromethyl)imidazo[1,2-a]pyridin-2-yl]benzamide]	227 to 229
Cn1cc(-c2ccc3nc(NC(=O)c4ccc(C(C)(C)CO)cc4)cn3c2)cn1 [Example 462, 4-(2-hydroxy-1,1-dimethylethyl)-N-[6-(1-methyl-1H-pyrazol-4-yl)imidazo[1,2-a]pyridin-2-yl]benzamide]	275 to 277
CC(C)(CO)c1ccc(C(=O)Nc2cn3cc(-c4cn[nH]c4)ccc3n2)cc1 [Example 464, 4-(2-hydroxy-1,1-dimethylethyl)-N-[6-(1H-pyrazol-4-yl)imidazo[1,2-a]pyridin-2-yl]benzamide]	293 to 296
CC(C)(CO)c1ccc(C(=O)Nc2cn3cc(-c4ccoc4)ccc3n2)cc1 [Example 465, N-[6-(3-furyl)imidazo[1,2-a]pyridin-2-yl]-4-(2-hydroxy-1,1-dimethylethyl)benzamide]	246 to 248
CC(C)(CO)c1ccc(C(=O)Nc2cn3cc(-c4ccsc4)ccc3n2)cc1 [Example 466, 4-(2-hydroxy-1,1-dimethylethyl)-N-[6-(3-thienyl)imidazo[1,2-a]pyridin-2-yl]benzamide]	250 to 252
CC(C)(CCO)c1ccc(C(=O)Nc2cn3cc(Cl)ccc3n2)cc1 [Example 467, N-(6-chloroimidazo[1,2-a]pyridin-2-yl)-4-(3-hydroxy-1,1-dimethylpropyl)benzamide]	182 to 184
CC(C)(CCO)c1ccc(C(=O)Nc2cn3cc(-n4ccnc4)ccc3n2)cc1 [Example 468, 4-(3-hydroxy-1,1-dimethylpropyl)-N-[6-(1H-imidazol-1-yl)imidazo[1,2-a]pyridin-2-yl]benzamide]	225 to 227
CC(C)(C)c1ccc(C(=O)Nc2cn3cc(-n4cncn4)ccc3n2)cc1 [Example 469, 4-tert-butyl-N-[6-(1H-1,2,4-triazol-1-yl)imidazo[1,2-a]pyridin-2-yl]benzamide]	274 to 276
